By EC50 is commonly meant the midpoint of the concentration-response curve.

Molecules are shown by their SMILES.

The source of these data is PMC3081638 (The Journal of neuroscience : the official journal of the …, 2011).

One assay deals with nicotinic α4β2 receptor (Homo sapiens, UniProt P43681). As to conditions: ref Paradiso et al., 2001; cited from earlier work.
The test system of a further assay is α/β&α-M3-β. The class given is cell-based, human. As to conditions: α-M3-β chimera with the α/β concatemer; 10 μM; Figure 6.
Assay [1] deals with nicotinic α4β2 receptor, pooled combinations of constructs. Kind of assay: Steroid potentiation, values pooled over combinations of constructs. The class given is cell-based, human. As to conditions: for mean potentiation, single copy of WLAGMI: 10 μM 17β-estradiol.
The target in a further assay is β/αWLAAC&β2 (Homo sapiens, UniProt P17787+P43681). The assay is classed as cell-based. As to conditions: β/αWLAAC concatemer with free β2; 10 μM; Figure 6.
The next assay concerns the target α/β&β-M3-α (Homo sapiens, UniProt P17787+P43681, A332P/K336R/P333T/T327R/V337R). The assay is classed as cell-based. The note with it: β-M3-α chimera (α4 sequence transferred to β2); 10 μM; Figure 6.
A further assay has as its target αWLAAC with α/β (Homo sapiens, UniProt P43681). The class given is cell-based. The note with it: 10 μM, Figure 6.
In assay [2] the target is α/β concatemer expressed alone (Homo sapiens, UniProt P17787+P43681). As to the kind of experiment: Agonist activation, two-electrode voltage clamp of Xenopus oocytes. As to conditions: response to 1 μM 5I A85380 normalized to the response to 1 mM ACh. The class given is cell-based. A general note: In two-electrode clamp one electrode senses voltage and the other passes current.

The next assay deals with (α4)2(β3)3. The note with it: (α4)2(β3)3 receptor; ref Zwart et al., 2006; cited from earlier work.
The target of the next assay is β/α & β2 (Homo sapiens, UniProt P17787+P43681). As to the kind of experiment: Agonist activation, two-electrode voltage clamp of Xenopus oocytes. The assay is classed as cell-based.
In a further assay the target is α/β & α4 (Homo sapiens, UniProt P17787+P43681). The description is as above. The class given is cell-based. The note with it: response to 1 μM 5I A85380 normalized to the response to 1 mM ACh.
The target in assay [3] is β/α concatemer expressed alone (Homo sapiens, UniProt P17787+P43681). The description is as above. The assay is classed as cell-based. The note with it: response to 1 μM 5I A85380 normalized to the response to 1 mM ACh.
Assay [4] deals with nicotinic α4β2 receptor, α4 & β2 1:8 (Homo sapiens, UniProt P17787+P43681). The assay is described as above. The assay is classed as cell-based. The note with it: response to 1 μM 5I A85380 normalized to the response to 1 mM ACh.
The target of another assay is α/β & β2 (Homo sapiens, UniProt P17787+P43681). The assay is described as above. The assay is classed as cell-based.
Another assay addresses α/β&β2F119Q (Homo sapiens, UniProt P17787+P43681, F144Q). The assay is described as above. The assay is classed as cell-based.
The target of the next assay is β/α&β2F119Q (Homo sapiens, UniProt P17787+P43681, F144Q). The assay is described as above. The class given is cell-based.
Assay [5] addresses nicotinic α4β2 receptor, α4 & β2 8:1 (Homo sapiens, UniProt P17787+P43681). The assay is described as above. The note with it: response to 1 μM 5I A85380 normalized to the response to 1 mM ACh. The class given is cell-based.
The next assay has as its target β/α & α4 (Homo sapiens, UniProt P17787+P43681). The description is as above. The class given is cell-based. The note with it: response to 1 μM 5I A85380 normalized to the response to 1 mM ACh.

As to `CC12CCC3c4ccc(O)cc4CCC3C1CCC2O` (single isomer, unassigned) [enantiomer of 17β-estradiol], the “potentiation of the α4β2 receptor (in words)” value at nicotinic α4β2 receptor was “does not potentiate”.

Take `C[C@]12CC[C@@H]3c4ccc(O)cc4CC[C@H]3[C@@H]1CC[C@@H]2O` [17β-estradiol]: the “potentiation by 17β-estradiol (in words)” value is “removes potentiation” with α/β&α-M3-β, “but not when it is expressed with free β2” at β/αWLAAC&β2, “confers potentiation” on α/β&β-M3-α and “removes potentiation” at αWLAAC with α/β. Also, the “average potentiation by 10 μM 17β-estradiol” value in assay [1] (0 WLAGMI domains, 10 combinations tested) came out at 0.97 ± 0.02; in assay [1] (1 WLAGMI domain, 10 combinations), 2.2 ± 0.2; in [1] (2 WLAGMI domains, 5 combinations), 2.4 ± 0.4; in assay [1] (3 WLAGMI domains, 4 combinations), 3.3 ± 0.2; in assay [1] (5 WLAGMI domains, 3 combinations) it was 3.7 ± 0.3. For the same molecule, the “mean potentiation by 17β-estradiol” value in [1] (5 cases with no untethered AGMI and 2 or 3 critical tryptophans) is given as 0.94 ± 0.04. Also, the “mean potentiation, single copy of WLAGMI” value is 1.6 ± 0.1 fold in [1] (WLAGMI on α4 N-terminal constructs, N=2 combinations); 2.3 ± 0.3 fold in [1] (WLAGMI on β2 N-terminal constructs, N=8 combinations); 2.4 ± 0.5 fold in assay [1] (domain on the structural subunit, 4 combinations).

Regarding `Ic1cncc(OC[C@@H]2CCN2)c1` [5I A85380, 5-iodo-3-(2(S)-azetidinylmethoxy) pyridine], the “5I A85380 response” value came out at 0.16 in assay [2]; 1.59 on β/α & β2 (β/α & β2, response to 1 μM 5I A85380 normalized to the response to 1 mM ACh); 0.14 on α/β & α4; 0.44 in [3]; 1.44 in assay [4]; 1.84 at α/β & β2 (α/β & β2, response to 1 μM 5I A85380 normalized to the response to 1 mM ACh). Also, the “5I A85380 response” value in [5] amounted to 0.19; on β/α & α4, 0.17. Also, the “maximal response to 5I A85380 compared with ACh” value with (α4)2(β3)3 was “greater than the maximal response to ACh”. For the same molecule, the EC50 on β/α & β2 is 29 ± 12 nM; on α/β & β2, 8 ± 1 nM; on α/β&β2F119Q, 127 ± 14 nM; at β/α&β2F119Q, 16 ± 1 nM. Besides, the “5I A85380 maximal response” value is on record as 1.44 ± 0.10 fold at β/α & β2 (β/α concatemer with β2, normalized to the response to 1 mM ACh); 1.44 ± 0.07 fold at α/β & β2 (α/β concatemer with wild-type β2, normalized to the response to 1 mM ACh); 1.13 ± 0.11 fold on α/β&β2F119Q (α/β concatemer with β2F119Q, normalized to the response to 1 mM ACh); 1.29 ± 0.04 fold on β/α&β2F119Q (β/α concatemer with β2F119Q, normalized to the response to 1 mM ACh).
